Series [1] deals with histamine-induced pruritus. Put plainly: Antipruritic activity, histamine-induced pruritus in mice. The class given is in vivo, CD-1 mice. Conditions: for inhibition of pruritus following histamine injections (in words): intradermal histamine, Example 5, JNJ7777120 and desloratadine 20 mg/kg oral. The method, then: Antipruritic effects were tested in vivo in CD-1 mice, females, 10-12 weeks, according to methods known in the art. The hair was clipped over the rostral part of the back at the interscapular level of the mice one day before the dosing. Before the testing, the mice were placed in individual clear plastic cages for at least one hour for acclimation. After fasting for 1.5 hours, the animals were dosed orally with the test article, dissolved in a vehicle consisting of 1% methylcellulose/water, 10 mL/kg body weight. Sixty minutes after the oral dosing, an intradermal injection of histamine (300 nmol in 20 μl phosphate buffered saline (PBS), pH 7.4) was administered. Immediately after the histamine injection, the bouts of scratches were counted for 40 min. Scratching induced by the histamine vehicle PBS served as control.
Norketotifen was tested in escalating doses and in a supramaximal dose of 100 mg/kg.

The nature of series [2]: Repeat-dose pharmacological and toxicological studies in dogs. Conditions: daily doses up to 20 mg/kg/day. The class given is in vivo. An excerpt:
Dogs vomit spontaneously for a variety of benign reasons—to expel unwanted content from their stomach, as a result of gastric irritation or in response to colonic irritation. In recent toxicological studies in dogs of various drugs, including isomeric norketotifen, vomiting occurred in both control groups and drug groups and may have been treatment-related, rather than drug-related. The unexpectedly low systemic toxicity of norketotifen and the isomers thereof is believed to be due to low systemic (plasma) concentrations, caused by the fact that norketotifen and the isomers thereof are not circulating in plasma but are accumulating in the skin, which is the largest organ in the body.

A short description of series [3]: Sedation in human subjects. The class given is in vivo. Conditions: doses of 5 mg and 10 mg, humans.
Series [4] deals with histamine-induced pruritus. Conditions: intradermal histamine, humans and mice; not tested in Example 5; cited from earlier work.

We go through three molecules from patent US9333199B2, “Methods of treatment of histamine H-4 receptor-related pruritus associated with nerve disorders” (BRIDGE PHARMA, INC., priority 2013, dated 2016).

Consider `CN1CCN(C(=O)c2cc3cc(Cl)ccc3[nH]2)CC1` [JNJ7777120, reference compound], for which the “inhibition of pruritus following histamine injections (in words)” value in series [1] is “potently inhibited”.

Consider `O=C1Cc2ccccc2C(=C2CCNCC2)c2ccsc21` [Norketotifen, norketotifen], for which, in series [1] (100 mg/kg oral, histamine 300 nmol intradermal, bouts counted 40 min), the “inhibition of histamine-induced pruritus at supramaximal dose” value is on record as “complete inhibition”. Besides, the “inhibition of histamine-induced pruritus, escalating doses” value in series [1] (escalating oral doses, histamine 300 nmol intradermal) was “dose-dependently inhibiting histamine-induced pruritus”. Also, the “inhibition of pruritus following histamine injections (in words)” value in series [1] is given as “potently inhibited”. Further, the “sedation or other adverse events, chronic dosing” value in series [2] is reported as “without causing sedation or other adverse events”. In addition, the “sedation in human subjects” value in series [3] is given as “do not produce sedation”.

As to `CC(C)(C(=O)O)c1ccc(C(O)CCCN2CCC(C(O)(c3ccccc3)c3ccccc3)CC2)cc1` (stereo not shown) [fexofenadine], in series [4], the “inhibition of pruritus following histamine injections (in words), general statement” value is “not inhibited”.
